The values below come from patent US6310065A, “Pyridazinone hydrochloride compound and method for producing the same” (Nissan Chemical Industries, Ltd., priority 1998, dated 2001).

Counter-ions that a name gives are not always drawn.

The nature of data set [1]: Physical properties and stability of the hydrochlorides, stated in words.
The nature of data set [2]: Hygroscopic test under conditions of 25° C. and 75% RH (Test Example 1). It counts as physicochemical. The method, then: Hygroscopic test of 2-hydrochloride and 3/2-hydrochloride under conditions of 25° C. and 75% RH
A humidity conditioning solution was prepared by using a saturated aqueous solution of sodium chloride, and the solution thus prepared was placed in a humidistat, and temperature-moisture conditions at 25° C. were adjusted. 0.4 g of 2-hydrochloride and 0.2 g of 3/2-hydrochloride were weighed respectively in a weighing bottle to prepare test samples, and the test samples were subjected to hygroscopic test under the above adjusted temperature-moisture conditions to measure a water content and a decomposed material content as a lapse of time and to compare hygroscopicity and stability of the test samples.

Data set [3] is described as follows: Pharmaceutical effect, stated in words.
A short description of data set [4]: Comparison of biological dynamics in a dog, 10 mg/kg oral administration by capsules. The format is in vivo. The settings on record: for AUC (0-.infin.) / Cmax: 10 mg/kg oral administration by capsules, 10 mg/kg. On the procedure:
Further, the compound (1) and its 3/2-hydrochloride (2) were compared with regard to biological dynamics in a dog. […] Result: (10 mg/kg oral administration by capsules)

The mark [5] stands for this setting: 10 mg/kg oral by capsules, ratio to compound (1).

As to `COc1ccc(CNc2cn[nH]c(=O)c2Cl)cc1OCC(=O)N1CCN(Cc2ccccc2)CC1` [1-hydrochloride], in data set [1], the “electrostatic charging of the crystal” value was “easily electrostatically charged”, the hygroscopicity result was “high hygroscopicity” and the solubility result was “poor in solubility”.
Turning to `COc1ccc(CNc2cn[nH]c(=O)c2Cl)cc1OCC(=O)N1CCN(Cc2ccccc2)CC1` [2-hydrochloride, 2-Hydrochloride of 4-chloro-5-[3-(4-benzylpiperazin-1-yl)carbonylmethoxy-4-methoxybenzylamino]-3 (2H) -pyridazinone], the Water content in data set [2] (Time 0) stood at 0.93%; in data set [2] (Time 1), 4.17%; in data set [2] (Time 24), 5.60%; in data set [2] (Time 48) it was 9.45%. The “Increased decomposed material content” value is recorded as 1.75% in data set [2] (Time 24) and 11.78% in data set [2] (Time 48). Also, the degraded in data set [2] (solid, 75% rh, Time 1, read-out: Increased decomposed material content) was found to be 0.08%. Further, the pharmaceutical effect result in data set [3] was “excellent pharmaceutical effect”. Further, in data set [1], the hygroscopicity result is “highly hygroscopic”. For the same compound, the “decomposition in a methanol solvent” value in data set [1] (methanol solvent) was “rapidly decomposed in a methanol solvent”.
Regarding `COc1ccc(CNc2cn[nH]c(=O)c2Cl)cc1OCC(=O)N1CCN(Cc2ccccc2)CC1` [Compound 1, 4-chloro-5-[3-(4-benzylpiperazin-1-yl)carbonylmethoxy-4-methoxybenzylamino]-3(2H)-pyridazinone], in data set [4], the “AUC (0-.infin.)” value came to 844.3 ng·h/mL and the maximum concentration (Cmax) (as a rule, the peak of the concentration-time curve) turned out to be 249.7 ng/mL.
For the compound `COc1ccc(CNc2cn[nH]c(=O)c2Cl)cc1OCC(=O)N1CCN(Cc2ccccc2)CC1` [Compound 2, 3/2-Hydrochloride of 4-chloro-5-[3-(4-benzylpiperazin-1-yl)carbonylmethoxy-4-methoxybenzylamino]-3 (2H) -pyridazinone], in data set [2] (Time 0), the Water content worked out at 2.03%. In data set [2] (Time 1), the “Increased decomposed material content” value was found to be 0.06% and the Water content is listed as 2.42%. Besides, in data set [2] (Time 24), the “Increased decomposed material content” value turned out to be 0.17% and the Water content was determined as 2.34%. In data set [2] (Time 48), the “Increased decomposed material content” value was determined as 0.18% and the Water content was found to be 2.57%. Further, the pharmaceutical effect result in data set [3] was “equivalent to that of 2-hydrochloride”. Also, in data set [4], the “AUC (0-.infin.)” value came to 1998.3 ng·h/mL and the Cmax worked out at 1349.0 ng/mL. Further, in data set [4] (setting [5]), the “area under the curve (AUC) of time-concentration in blood (0-.infin.), times more preferable as compared with the compound (1)” value was 2.3 times and the “maximum concentration in blood (Cmax), times higher as compared with the compound (1)” value is 5.4 times.
